Key:
[1] = system: MDA-MB-468 breast cancer cells; experiment: Transwell cell migration assay, MDA-MB-468 breast cancer cells; format: cell-based; conditions: MDA-MB-468, 12.5 μM, 24 h, 8 μm pore (FIG. 2)
Description: MDA-MB-231 (HTB-26, ATCC, Manassas, Va., USA) and MDA-MB-468 (HTB-132, ATCC, Manassas, Va., USA) breast cancer cell lines and DU 145 (HTB-81, ATCC, Manassas, Va., USA) prostate cancer cell line grown in RPMI medium supplement with 10% FBS were starved for 24 hours in medium without FBS. After 24 hours, 5×10^4 cells in FBS free medium were placed in the upper chamber of 24-well Transwell apparatus (CORNING TRANSWELL® polycarbonate membrane inserts, 8 μm pore size) with solvent (DMSO/PEG400) or 12.5 μM Compound 1 as indicated. Medium with FBS and Compound 1 was added to the bottom chamber. Twenty-four hours later the cells from the upper chamber were removed with a cotton swab. Cells that migrated to the lower side of the membrane were stained with Calcein-AM (Sigma) and images were taken with a fluorescence microscope.

A2058 (melanoma) cells = experiment: Transwell cell migration assay, A2058; format: cell-based; conditions: Homo sapiens
Source text: (§1) A375 (melanoma) (CRL-1619, ATCC, Manassas, Va., USA), A431 (melanoma) (CRL-2592, ATCC, Manassas, Va., USA), A2058 (melanoma) (CRL-11147, ATCC, Manassas, Va., USA), MDA-MB-231 (breast) (HTB-26, ATCC, Manassas, Va., USA), LS175T (colon) (ATCC, Manassas, Va., USA), HT29 (colon) (HTB-38, ATCC, Manassas, Va., USA), PC3 (prostate) (CRL-1435, ATCC, Manassas, Va., USA), Panc03.27 (pancreatic) (ATCC, Manassas, Va., USA), 4T1 (breast-mouse) (CRL-2539, ATCC, Manassas. Va., USA), D122 (lung-mouse) (the Weizmann Institute of Science), D122-luc (lung-mouse) (the Weizmann Institute of Science), and B16 F10.9 (melanoma-mouse) cells (Caliper Life Sciences, Hopkinton Mass.), were grown in RPMI medium supplemented with 10% FBS. HUVEC cells were grown in Endothelial Cell Growth Medium 2 and THP1 cells were grown in RPMI medium supplemented with 10% FBS, 2 mM L-Glutamine, 1.5 g/L sodium bicarbonate, 10 mM Hepes, 1 mM sodium pyruvate, 4.5 g/L glucose and 0.05 mM 2-mercaptoethanol. The cells were starved for 24 hours in medium without FBS. […] Cells that migrated to the lower side of the membrane were stained with Calcein-AM (Sigma) and images were taken with a fluorescence microscope. The number of migrating cells was quantified by ImageJ software and the IC50 values were calculated using Prism software (Graphpad).

HT29 (colon) cells = experiment: Transwell cell migration assay, HT29; format: cell-based; conditions: Homo sapiens, HT-29
Source text: as §1

[2] = system: B16F10 murine melanoma cells; experiment: Anti-metastasis assay: lung metastases in mice implanted with B16F10 melanoma cells; format: in vivo, female B6D2F1 mice; conditions: i.p., start D3, foci count on D17 vs comparator mice; dose regimen of the value not stated (FIGS. 4A and B)
Description: Compound 1 and Compound 3 were tested for efficacy in inhibiting lung metastases in female B6D2F 1 mice implanted with B16F10 murine melanoma cells. Tumors were initiated on Day 1 (D1) by intravenously (i.v.) injecting 1×10^5 B16F10 tumor cells into the tail vein of test mice. Mice were sorted into three vehicle-treated control groups (n=20 or 10/group) and nine treatment groups (n=10/group). Compound 1 and Compound 3 monotherapies were administered at 10 mg/kg (2 mg/mL at 5 mL/kg) and at 20 mg/kg (4 mg/mL at 5 mL/kg), intraperitoneally (i.p.), daily for fourteen doses starting on D3 (qd×14 (start D3)). Compound 1 and Compound 3 monotherapies also were administered at 20 mg/kg (4 mg/mL at 5 mL/kg), i.p., twice daily for twenty-nine doses starting on D3 (bid×14.5 (start D3)). […]
The study endpoint was defined as 100 metastases per lung set in animals periodically sampled from the saline control group. […] All animals remaining on study were euthanized, their metastases were counted, and the mean±SEM foci count for each group was calculated. Efficacy was determined by an analysis of percent inhibition, the percent change in the mean foci count on D17 for treated versus comparator mice, and by statistical assessment of differences in foci counts between treated and comparator mice.

[3] = system: MDA-MB231 breast cancer cells; experiment: Soft agar colony formation, MDA-MB231 breast cancer cells; format: cell-based; conditions: 14 days, MTT
Description: (§2) The assay was done using CYTOSELECT™ 96-Well In Vitro Tumor Sensitivity Assay kit from Cell Biolabs, Inc. (San-Diego, Calif.). The cells were grown for 14 days with RPMI and 10% FBS medium in the presence of the indicated concentration of Compound 1 (PRT7000467). The quantification of the colony formation on soft agar was done using MTT reagent after solubilization of the agar (all the materials are supplied in the kit). The IC50 value was calculated using Prism software.

PC3 (prostate) cells = experiment: Transwell cell migration assay, PC3; format: cell-based
Source text: as §1

LS175T (colon) cells = experiment: Transwell cell migration assay, LS175T; format: cell-based
Source text: as §1

A375 melanoma cells = experiment: Soft agar colony formation, A375 melanoma cells; format: cell-based; conditions: 14 days, MTT; for soft agar colony formation: A375 melanoma cells
Description: as §2

SMILES	cell migration (Transwell, images) [1]	IC50 (A2058 (melanoma) cells) [µM]	IC50 (HT29 (colon) cells) [µM]	efficacy in inhibiting lung metastases (percent inhibition of mean foci count) [2] [%]	soft agar colony formation ([3]; MDA-MB231 breast cancer cells)	LD50 in the soft agar colony formation assay ([3]; MDA-MB231 cells) [µM]	IC50 (PC3 (prostate) cells) [µM]	IC50 (LS175T (colon) cells) [µM]	LD50 in the soft agar colony formation assay (A375 melanoma cells; A375 cells) [µM]	soft agar colony formation (A375 melanoma cells)
Cc1cc(C)nc(NS(=O)(=O)c2ccc(NC(=O)/C(=C\c3cccs3)NC(=O)c3cccs3)cc2)n1 [Compound 1]	inhibits the migration	3.5	1.5	51	inhibits soft agar colony formation	13.08	6.3	1	2.8 to 5.6	inhibits soft agar colony formation
Cc1cc(S(=O)(=O)Nc2ncccn2)ccc1NC(=O)/C(=C\c1cccs1)NC(=O)c1cccs1 [Compound 3]				45						inhibit soft agar colony formation

— patent publication US20110130374A1, “Small Pyrimidine Derivatives and Methods of Use Thereof” (BIOSEARCH(2007) LTD., priority 2009, published 2011)
